Experiments:
RCM-1 = assay: MTS proliferation assay; format: cell-based, human
Description: (§1) Cell lines and in vitro cytotoxicity assay. Cells were maintained at 37° C. under standard cell culture conditions. Cells were plated at an optimized density for each cell line per well in 96-well microtiter FALCON® plates, incubated overnight, and then exposed to a serial dilution of drug. […] The results were expressed as an IC50, which is the drug concentration required to inhibit cell proliferation to 50% of that of untreated control cells. The mean IC50 and standard deviation (SD) from multiple tests for each cell line were calculated.
(§2) In vitro Cellular Proliferation Assays.

HCT-116 = assay: MTS proliferation assay; format: cell-based, human
Description: as §1, §2

RKO-RM13 = assay: MTS proliferation assay; format: cell-based, human
Description: as §1, §2

[1] = test system: panel of 60 CRC cell lines; assay: MTS proliferation assay, whole panel; format: cell-based, human; conditions: read-out: IC50, range of sensitivity across the panel
Description: as §1, §2

Description for pIGF-1R/pIR and pAKT: Cells were serum-starved overnight, then either stimulated with 50 ng/ml IGF-1, IGF-2 or insulin for 10 minutes, or unstimulated. Cell lysates were subjected to MSD for measuring both total and phosphorylated IGF-1R and AKT. The phospho-protein values were normalized to the corresponding total protein levels (e.g., pIGF-1R/IGF-1R). The ligand-stimulated activation of IGF-1R or AKT is presented as the ratio of the pIGF-1R/IGF-1R or pAKT/AKT value in IGF-1, IGF-2 or insulin-stimulated cells vs. the value in the non-stimulated cells. […] 20 ug of total protein from cell lysates were subjected to Western blot analysis.
Western Blots and MesoScale Discovery (MSD) Multiplex Plate Based Assays. […] Antibodies for pIGF-IR/pIR, pAkt, p-p44/42 MAPK and IRS2 for Western blot and MSD were purchased from Cell Signaling Technology and Santa Cruz Biotechnology (see figure legends) except for β-ACTIN® sourced from Millipore. Protein signals from Western blots were visualized using ODYSSEY® Imaging (Li-Cor Biosciences). Measurement of phospho- and total IGF-1R, IR, IRS-1, Akt and MAPK was also determined by commercially available multiplex plate based assays (MSD, Gaithersburg Md.). […] Measurement of IRS2 was determined using customized assays utilizing MSD technology.
Cell lysates were subsequently subjected to Western blot analysis and evaluated for pIGF-1R/pIR and pAKT.

Compound: C[C@@]1(C(=O)Nc2ccc(F)nc2)CCCN1c1nc(Nc2cc(C3CC3)n[nH]2)c2cccn2n1 [BMS-754807, (2S)-1-(4-((5-cyclopropyl-1H-pyrazol-3-yl)amino)pyrrolo[2,1-f][1,2,4]triazin-2-yl)-N-(6-fluoro-3-pyridinyl)-2-methyl-2-pyrrolidinecarboxamide]
- IC50 (RCM-1; Homo sapiens, RCM-1, 72 h): 24 nM
- Sensitivity Classes (RCM-1; RCM-1): S (“S” refers Sensitive)
- Sensitivity to BMS-754807 (HCT-116; HCT116, preliminary panel of 45 CRC cell lines): Resistant (resistant cell lines had IC50 values of >50 nmol/L)
- Sensitivity Classes (HCT-116; HCT-116): R (“R” refers Resistant)
- IC50 (HCT-116; Homo sapiens, HCT-116, 72 h): 503 nM
- IC50 (RKO-RM13; Homo sapiens, 72 h): 727 nM
- Sensitivity Classes (RKO-RM13; RKO-RM13): R (“R” refers Resistant)
- Sensitivity to BMS-754807 (RKO-RM13; RKO-RM13, preliminary panel of 45 CRC cell lines): Resistant (resistant cell lines had IC50 values of >50 nmol/L)
- pIGF-1R/pIR and pAKT levels (pIGF-1R/pIR and pAKT): inhibited by BMS-754807 treatment in a dose-dependent manner
- IC50 [1]: 3 to 5500 nM

Source: patent publication US20140309229A1, “METHODS FOR SELECTING AND TREATING CANCER IN PATIENTS WITH IGF-1R/IR INHIBITORS” (priority 2011, published 2014)
